Laboratory results published in PubChem BioAssay (NCI).
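Results reflect a 48-hour exposure of cells in 96-well plates to compound at five concentrations. GI50 is the concentration that inhibits growth by half. TGI is the concentration that stops growth completely.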

Tests used:
Experiment in all cases: NCI anticancer screen, dose series, 48 h
HCT-116 colon = system: HCT-116 colon
NCI-H226 lung = system: NCI-H226 lung
OVCAR-8 ovarian = system: OVCAR-8 ovarian
786-0 renal = system: 786-0 renal
UO-31 renal = system: UO-31 renal
SK-MEL-28 melanoma = system: SK-MEL-28 melanoma
HCT-15 colon = system: HCT-15 colon
SF-539 CNS = system: SF-539 CNS
SR leukemia = system: SR leukemia
NCI-H522 lung = system: NCI-H522 lung

Row | Structure (SMILES) | TGI (HCT-116 colon) [µM] | TGI (NCI-H226 lung) [µM] | TGI (OVCAR-8 ovarian) [µM] | TGI (786-0 renal) [µM] | TGI (UO-31 renal) [µM] | TGI (SK-MEL-28 melanoma) [µM] | TGI (HCT-15 colon) [µM] | TGI (SF-539 CNS) [µM] | TGI (SR leukemia) [µM] | TGI (NCI-H522 lung) [µM] | GI50 (HCT-116 colon) [µM] | GI50 (NCI-H522 lung) [µM] | GI50 (OVCAR-8 ovarian) [µM] | GI50 (786-0 renal) [µM] | GI50 (UO-31 renal) [µM] | GI50 (SK-MEL-28 melanoma) [µM] | GI50 (HCT-15 colon) [µM] | GI50 (SF-539 CNS) [µM] | GI50 (SR leukemia) [µM] | GI50 (NCI-H226 lung) [µM]
1 | NC(CSC1c2ccccc2-c2ccccc21)C(=O)O (stereo unspecified) | > 100 | > 100 | > 100 | > 100 | > 100 | > 100 | > 100 | > 100 | > 100 | – | – | – | – | – | – | – | – | – | – | –
2 | CCC(=O)C12OC3OC(C)(C)OC3C1OC(C)(C)O2 (stereo unspecified) | > 100 | > 100 | > 100 | > 100 | > 100 | > 100 | – | > 100 | > 100 | > 100 | – | – | – | – | – | – | – | – | – | –
3 | CCN(CC)CC1c2ccccc2C(CNc2ccccc2)N1C (stereo unspecified) | – | – | > 100 | > 100 | > 100 | > 100 | > 100 | – | – | > 100 | – | – | – | – | – | – | – | – | – | –
4 | O=C1c2cccnc2C(=O)c2c1c(C(=O)NCCCN1CCCCC1)c1ccccn21 | 1.22 | – | 5.58 | 8.06 | 6.71 | 10.5 | 2.57 | 3.07 | > 100 | 3.45 | 0.337 | 1.08 | 0.75 | 1.18 | 1.42 | 3.15 | 0.816 | 1.47 | 0.474 | –
5 | NNC(=O)CS(=O)(=O)Nc1ncccn1 | > 100 | > 100 | > 100 | > 100 | > 100 | > 100 | > 100 | > 100 | – | > 100 | – | – | – | – | – | – | – | – | – | –
6 | CCCCCCCCCCCCCCCCCC[n+]1ccc2c(C)c3c(c(C)c2c1)c1cc(O)ccc1n3CC | 12.7 | 8.68 | 6.53 | 10.4 | 18.7 | 4.98 | 47.1 | 5.59 | – | 18.1 | 1.19 | 1.89 | 1.71 | 2.21 | 3.39 | 1.91 | 3.34 | 2.2 | – | 1.88
7 | O=C(/C=C\c1cccc([N+](=O)[O-])c1)/C=C/c1cccc([N+](=O)[O-])c1 | 0.407 | > 100 | > 100 | 22.1 | 4.9 | > 100 | > 100 | > 100 | – | 10.9 | 0.2 | 2.79 | 5.25 | 5.05 | 1.7 | > 100 | 5.1 | 7.89 | – | 15.4
8 | O=C1CC(c2c[nH]c3ccccc23)C(=O)N1 (stereo unspecified) | > 100 | > 100 | > 100 | > 100 | > 100 | > 100 | > 100 | > 100 | – | – | – | – | – | – | – | – | – | – | – | –
9 | CC(=O)OC12C=C(C)C(C(C)C1)C1C(=O)N(CCN3CCOCC3)C(=O)C12 (stereo unspecified) | > 100 | > 100 | > 100 | > 100 | > 100 | – | > 100 | > 100 | – | > 100 | > 100 | > 100 | > 100 | > 100 | > 100 | – | > 100 | > 100 | – | > 100
10 | O=C1c2ccccc2-c2cc([N+](=O)[O-])c([N+](=O)[O-])cc21 | 6.23 | 12.6 | 3.57 | 5.86 | 3.07 | 8.4 | – | 1.03 | 0.459 | 2.99 | – | – | – | – | – | – | – | – | – | –
11 | COc1cc2c(c(OC)c1OC)-c1ccc(SC)c(=O)cc1C(NC(=O)c1ccccc1)CC2 (stereo unspecified) | 0.188 | – | 24.6 | 38.3 | > 68.1 | > 63.1 | – | 0.0922 | 27 | < 0.0316 | – | – | – | – | – | – | – | – | – | –
12 | COc1cc2c3c(n(C)c(=O)c2cc1OC)-c1cc2c(cc1/C3=C\CCCCN1C(=O)c3ccccc3C1=O)OCO2 | > 100 | 31.4 | > 100 | > 100 | – | > 100 | 50.5 | – | – | – | 22.8 | – | 17.1 | 16 | – | > 100 | 14.8 | – | – | 12.8
13 | Cc1c(/C=N/N=C/c2[nH]c(C(=O)OC(C)(C)C)c(C)c2C)[nH]c(C(=O)OC(C)(C)C)c1C | > 100 | > 100 | > 100 | > 100 | > 100 | – | > 100 | > 100 | > 100 | > 100 | – | – | – | – | – | – | – | – | – | –
14 | CN=c1ccc2nc3ccc(N)cc3sc-2c1 | 10.3 | 41.4 | 10.3 | 25.9 | 21.2 | 24.1 | 68 | 5.86 | – | 7.97 | 1.29 | 1.33 | 1.45 | 10.5 | 4.56 | 7.36 | 1.62 | 1.75 | – | 15.2
15 | Fc1ccc(C2SCc3nc4ccccc4n32)c(F)c1 (stereo unspecified) | > 100 | > 100 | > 100 | > 100 | > 100 | – | > 100 | > 100 | > 100 | > 100 | – | – | – | – | – | – | – | – | – | –
16 | CN(C)CCCn1c(=O)c2ccccc2c2ccccc21 | > 100 | 38.5 | > 100 | > 100 | – | 46.9 | > 100 | 28.8 | > 100 | 30.6 | 4.74 | 12.5 | 7.03 | 12.5 | – | 21.6 | 13.8 | 11.8 | 12.8 | 12.1
17 | CO/N=C(\COc1ccc2c(c1)[nH]c1ccccc12)c1ccc(F)cc1 | > 100 | > 100 | > 100 | > 100 | > 100 | > 100 | > 100 | > 100 | – | > 100 | 20.6 | > 100 | 10.4 | 16.8 | > 100 | > 100 | > 100 | > 100 | – | > 100
18 | O=C(NC1CCCCC1)NS(=O)(=O)c1ccc2c(c1)CCC2 | – | > 100 | > 100 | > 100 | > 100 | > 100 | > 100 | > 100 | > 100 | > 100 | – | – | – | – | – | – | – | – | – | –
